According to article PMC10176470, “Engaging a Non-catalytic Cysteine Residue Drives Potent and Selective Inhibition of Caspase-6” (Journal of the American Chemical Society, 2023):

What was measured:
[1] = target: T1, proteins of HEK293T cells transiently overexpressing caspase-6 (Homo sapiens, UniProt P28074); type: cell-based
T1 sequence (P28074 60-263): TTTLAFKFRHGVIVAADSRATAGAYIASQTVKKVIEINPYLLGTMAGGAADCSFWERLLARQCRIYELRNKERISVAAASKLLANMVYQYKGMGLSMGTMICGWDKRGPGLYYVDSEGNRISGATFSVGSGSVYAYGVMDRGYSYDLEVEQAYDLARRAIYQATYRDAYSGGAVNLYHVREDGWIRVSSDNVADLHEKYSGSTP

[2] = target: proteins of HEK293T cells transiently overexpressing caspase-6 (Homo sapiens, UniProt P04183); type: cell-based; settings: exp_ref Probe; protein TK1 (P04183); analysis C6
proteins of HEK293T cells transiently overexpressing caspase-6 (Homo sapiens, UniProt P04183), sequence (P04183 whole entry): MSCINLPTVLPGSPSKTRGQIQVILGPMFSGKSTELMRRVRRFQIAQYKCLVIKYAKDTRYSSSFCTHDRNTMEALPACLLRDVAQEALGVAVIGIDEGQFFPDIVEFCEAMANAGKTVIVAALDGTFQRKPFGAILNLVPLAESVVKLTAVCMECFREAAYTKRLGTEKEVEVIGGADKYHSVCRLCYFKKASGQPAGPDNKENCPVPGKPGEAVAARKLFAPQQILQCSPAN

[3] = target: proteins of HEK293T cells transiently overexpressing caspase-6 (Homo sapiens, UniProt Q14247); type: cell-based; settings: exp_ref Probe; protein CTTN (Q14247); analysis C6
proteins of HEK293T cells transiently overexpressing caspase-6 (Homo sapiens, UniProt Q14247), sequence (Q14247 whole entry): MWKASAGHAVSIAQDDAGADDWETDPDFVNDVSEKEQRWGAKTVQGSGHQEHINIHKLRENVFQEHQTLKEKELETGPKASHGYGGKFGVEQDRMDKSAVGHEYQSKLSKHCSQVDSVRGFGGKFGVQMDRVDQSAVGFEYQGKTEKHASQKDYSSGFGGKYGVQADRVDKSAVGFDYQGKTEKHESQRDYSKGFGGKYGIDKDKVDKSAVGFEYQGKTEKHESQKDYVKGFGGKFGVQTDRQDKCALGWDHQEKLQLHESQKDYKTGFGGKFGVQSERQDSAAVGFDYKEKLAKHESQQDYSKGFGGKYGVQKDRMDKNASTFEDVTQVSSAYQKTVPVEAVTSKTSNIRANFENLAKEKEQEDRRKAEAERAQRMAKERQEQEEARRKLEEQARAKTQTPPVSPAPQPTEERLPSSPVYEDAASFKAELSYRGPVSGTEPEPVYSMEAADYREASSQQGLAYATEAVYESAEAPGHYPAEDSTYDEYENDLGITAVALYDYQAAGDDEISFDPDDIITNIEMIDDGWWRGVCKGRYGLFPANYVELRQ

[4] = target: proteins of HEK293T cells transiently overexpressing caspase-6 (Homo sapiens, UniProt Q08211); type: cell-based; settings: exp_ref Probe; protein DHX9 (Q08211); analysis C6
[5] = target: proteins of HEK293T cells transiently overexpressing caspase-6 (Homo sapiens, UniProt Q96K37); type: cell-based; settings: protein SLC35E1 (Q96K37); exp_ref Probe; analysis C6
proteins of HEK293T cells transiently overexpressing caspase-6 (Homo sapiens, UniProt Q96K37), sequence (Q96K37 whole entry): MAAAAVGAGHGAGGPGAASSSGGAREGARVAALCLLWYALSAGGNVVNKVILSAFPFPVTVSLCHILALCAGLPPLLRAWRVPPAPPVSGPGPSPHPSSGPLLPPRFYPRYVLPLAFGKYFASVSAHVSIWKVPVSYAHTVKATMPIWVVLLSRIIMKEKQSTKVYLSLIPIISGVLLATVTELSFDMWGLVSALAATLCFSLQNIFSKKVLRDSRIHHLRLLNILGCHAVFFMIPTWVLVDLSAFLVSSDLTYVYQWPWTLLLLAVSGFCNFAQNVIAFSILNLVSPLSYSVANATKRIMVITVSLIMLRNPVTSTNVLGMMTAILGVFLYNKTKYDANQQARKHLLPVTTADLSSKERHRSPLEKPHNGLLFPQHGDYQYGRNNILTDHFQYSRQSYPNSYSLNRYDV

[6] = target: proteins of HEK293T cells transiently overexpressing caspase-6 (Homo sapiens, UniProt P35908); type: cell-based; settings: Probe; protein KRT2 P35908
proteins of HEK293T cells transiently overexpressing caspase-6 (Homo sapiens, UniProt P35908), sequence (P35908 whole entry): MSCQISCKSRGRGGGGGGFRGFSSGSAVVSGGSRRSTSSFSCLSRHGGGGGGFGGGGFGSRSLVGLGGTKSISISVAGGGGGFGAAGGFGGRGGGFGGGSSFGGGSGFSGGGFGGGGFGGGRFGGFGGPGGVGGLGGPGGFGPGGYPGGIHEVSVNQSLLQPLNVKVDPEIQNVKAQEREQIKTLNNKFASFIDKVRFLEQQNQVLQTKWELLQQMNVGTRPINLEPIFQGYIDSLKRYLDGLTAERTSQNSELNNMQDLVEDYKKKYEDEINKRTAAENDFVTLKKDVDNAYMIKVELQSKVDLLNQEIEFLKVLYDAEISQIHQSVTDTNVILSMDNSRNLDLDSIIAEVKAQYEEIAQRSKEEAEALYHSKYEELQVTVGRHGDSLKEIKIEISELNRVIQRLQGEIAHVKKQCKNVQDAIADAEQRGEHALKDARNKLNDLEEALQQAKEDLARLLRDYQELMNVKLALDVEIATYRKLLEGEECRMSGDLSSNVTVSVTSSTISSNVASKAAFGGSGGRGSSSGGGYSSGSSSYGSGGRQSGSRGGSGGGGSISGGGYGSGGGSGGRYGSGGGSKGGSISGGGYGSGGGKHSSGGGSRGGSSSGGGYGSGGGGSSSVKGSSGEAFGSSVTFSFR

caspase-2 (C2) = caspase-2 (C2) (Homo sapiens, UniProt P42575); assay: Caspase-2 biochemical activity assay with fluorogenic substrate
caspase-2 (C2), sequence (P42575 whole entry): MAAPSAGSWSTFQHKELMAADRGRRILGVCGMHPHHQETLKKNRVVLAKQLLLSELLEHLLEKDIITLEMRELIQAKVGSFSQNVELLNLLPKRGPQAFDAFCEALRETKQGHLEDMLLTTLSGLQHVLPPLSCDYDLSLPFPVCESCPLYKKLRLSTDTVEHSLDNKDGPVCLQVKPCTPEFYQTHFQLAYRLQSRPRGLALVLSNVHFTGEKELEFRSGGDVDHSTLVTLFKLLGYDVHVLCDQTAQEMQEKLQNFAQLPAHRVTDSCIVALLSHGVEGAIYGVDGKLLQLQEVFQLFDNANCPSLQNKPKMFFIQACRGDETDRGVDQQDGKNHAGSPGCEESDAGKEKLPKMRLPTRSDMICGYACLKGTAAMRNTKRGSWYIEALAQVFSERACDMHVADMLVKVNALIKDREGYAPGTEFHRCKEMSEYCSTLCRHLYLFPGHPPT
Excerpt: (§1) Error bars represent the standard deviation of thre replicate measurements. […] Activity measured by the cleavage of aminofluorocoumarin-labeled peptides (see the Supporting Information for sequences). C = caspase.

caspase-3 (C3) = target: T2, caspase-3 (C3) (Homo sapiens, UniProt P42574); assay: Caspase-3 biochemical activity assay with fluorogenic substrate
T2 sequence (P42574 29-175 limits assumed): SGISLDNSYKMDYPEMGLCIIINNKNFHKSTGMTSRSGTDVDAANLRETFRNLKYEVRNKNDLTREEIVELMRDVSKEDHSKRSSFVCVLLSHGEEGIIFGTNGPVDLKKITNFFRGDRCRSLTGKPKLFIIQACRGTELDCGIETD
Excerpt: as §1

[7] = target: proteins of HEK293T cells transiently overexpressing caspase-6 (Homo sapiens, UniProt P31943); assay: SILAC proteomics / in-gel fluorescence, competition of probe 13-t labeling by 3a; settings: Comp; protein HNRNPH1 P31943
[8] = target: proteins of HEK293T cells transiently overexpressing caspase-6 (Homo sapiens, UniProt P13010); assay: as above; settings: Comp; protein XRCC5 P13010
proteins of HEK293T cells transiently overexpressing caspase-6 (Homo sapiens, UniProt P13010), sequence (P13010 whole entry): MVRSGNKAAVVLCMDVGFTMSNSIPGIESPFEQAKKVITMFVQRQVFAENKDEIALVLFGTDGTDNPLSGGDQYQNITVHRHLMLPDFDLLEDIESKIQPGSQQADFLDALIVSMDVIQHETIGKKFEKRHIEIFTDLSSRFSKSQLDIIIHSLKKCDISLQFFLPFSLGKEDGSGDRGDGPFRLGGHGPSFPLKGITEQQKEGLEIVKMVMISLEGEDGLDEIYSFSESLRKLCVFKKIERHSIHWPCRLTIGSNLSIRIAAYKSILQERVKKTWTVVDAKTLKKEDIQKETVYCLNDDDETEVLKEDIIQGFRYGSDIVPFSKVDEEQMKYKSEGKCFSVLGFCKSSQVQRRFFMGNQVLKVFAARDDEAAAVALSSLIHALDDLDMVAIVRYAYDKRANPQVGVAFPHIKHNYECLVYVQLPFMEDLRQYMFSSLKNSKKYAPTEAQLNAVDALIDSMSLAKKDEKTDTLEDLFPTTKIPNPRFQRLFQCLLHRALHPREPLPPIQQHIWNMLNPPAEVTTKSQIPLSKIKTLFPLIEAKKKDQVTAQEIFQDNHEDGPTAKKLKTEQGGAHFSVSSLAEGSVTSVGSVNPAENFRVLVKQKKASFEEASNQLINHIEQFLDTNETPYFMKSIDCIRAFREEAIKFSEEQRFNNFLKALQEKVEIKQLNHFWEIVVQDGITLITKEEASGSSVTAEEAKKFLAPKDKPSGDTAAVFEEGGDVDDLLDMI

[9] = target: proteins of HEK293T cells transiently overexpressing caspase-6 (Homo sapiens, UniProt P46777); assay: as above; settings: Comp; protein RPL5 P46777
[10] = target: proteins of HEK293T cells transiently overexpressing caspase-6 (Homo sapiens, UniProt P05388); assay: as above; settings: Comp; protein RPLP0 P05388
[11] = target: proteins of HEK293T cells transiently overexpressing caspase-6 (Homo sapiens, UniProt P14868); assay: as above; settings: Comp; protein DARS P14868
[12] = target: proteins of HEK293T cells transiently overexpressing caspase-6 (Homo sapiens, UniProt P62701); assay: as above; settings: Comp; protein RPS4X P62701
[13] = target: proteins of HEK293T cells transiently overexpressing caspase-6 (Homo sapiens, UniProt P38606); assay: as above; settings: Comp; protein ATP6V1A P38606
proteins of HEK293T cells transiently overexpressing caspase-6 (Homo sapiens, UniProt P38606), sequence (P38606 whole entry): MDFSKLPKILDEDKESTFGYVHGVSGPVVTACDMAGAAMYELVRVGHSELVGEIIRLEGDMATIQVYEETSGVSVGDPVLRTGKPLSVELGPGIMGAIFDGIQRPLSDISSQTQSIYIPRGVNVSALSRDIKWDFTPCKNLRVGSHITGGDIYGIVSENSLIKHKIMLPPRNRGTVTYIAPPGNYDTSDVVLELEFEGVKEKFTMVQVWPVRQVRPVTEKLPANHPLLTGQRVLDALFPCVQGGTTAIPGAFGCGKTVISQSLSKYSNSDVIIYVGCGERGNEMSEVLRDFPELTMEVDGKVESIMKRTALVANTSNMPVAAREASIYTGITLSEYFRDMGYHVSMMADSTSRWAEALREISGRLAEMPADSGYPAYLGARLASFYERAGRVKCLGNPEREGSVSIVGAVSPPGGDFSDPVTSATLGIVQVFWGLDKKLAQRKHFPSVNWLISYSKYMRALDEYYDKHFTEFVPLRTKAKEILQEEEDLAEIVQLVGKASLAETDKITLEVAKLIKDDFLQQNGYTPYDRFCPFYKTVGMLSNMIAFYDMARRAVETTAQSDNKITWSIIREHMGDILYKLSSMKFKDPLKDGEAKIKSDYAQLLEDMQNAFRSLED

[14] = target: proteins of HEK293T cells transiently overexpressing caspase-6 (Homo sapiens, UniProt Q15029); assay: as above; settings: Comp; protein EFTUD2 Q15029
proteins of HEK293T cells transiently overexpressing caspase-6 (Homo sapiens, UniProt Q15029), sequence (Q15029 whole entry): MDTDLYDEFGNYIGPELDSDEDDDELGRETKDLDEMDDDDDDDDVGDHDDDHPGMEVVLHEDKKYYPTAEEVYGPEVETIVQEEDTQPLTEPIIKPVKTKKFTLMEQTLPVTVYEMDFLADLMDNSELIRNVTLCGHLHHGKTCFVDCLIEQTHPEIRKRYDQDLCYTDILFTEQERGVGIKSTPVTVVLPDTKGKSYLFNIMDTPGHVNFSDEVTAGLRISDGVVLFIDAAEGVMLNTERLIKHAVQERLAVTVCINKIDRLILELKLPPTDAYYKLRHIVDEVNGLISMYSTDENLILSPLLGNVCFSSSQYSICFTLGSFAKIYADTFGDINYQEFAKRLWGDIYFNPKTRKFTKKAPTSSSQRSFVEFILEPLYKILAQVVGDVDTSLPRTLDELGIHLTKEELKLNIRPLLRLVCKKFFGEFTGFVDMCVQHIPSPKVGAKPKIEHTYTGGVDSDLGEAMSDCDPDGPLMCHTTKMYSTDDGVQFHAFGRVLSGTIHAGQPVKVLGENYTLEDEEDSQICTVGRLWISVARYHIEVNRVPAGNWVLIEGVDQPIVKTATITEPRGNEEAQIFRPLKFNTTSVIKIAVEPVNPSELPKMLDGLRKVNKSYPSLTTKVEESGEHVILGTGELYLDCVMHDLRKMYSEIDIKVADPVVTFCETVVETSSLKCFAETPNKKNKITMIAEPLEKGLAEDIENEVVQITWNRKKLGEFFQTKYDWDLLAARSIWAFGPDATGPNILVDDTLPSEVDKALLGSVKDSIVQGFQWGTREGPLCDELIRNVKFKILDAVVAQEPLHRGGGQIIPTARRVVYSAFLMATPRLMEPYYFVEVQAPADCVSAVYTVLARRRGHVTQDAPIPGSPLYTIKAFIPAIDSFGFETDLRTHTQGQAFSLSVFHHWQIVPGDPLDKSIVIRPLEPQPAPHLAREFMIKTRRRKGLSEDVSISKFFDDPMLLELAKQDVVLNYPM

[15] = target: T3, proteins of HEK293T cells transiently overexpressing caspase-6 (Homo sapiens, UniProt P50990); assay: as above; settings: Comp; protein CCT8 P50990
T3 sequence (P50990 1-548): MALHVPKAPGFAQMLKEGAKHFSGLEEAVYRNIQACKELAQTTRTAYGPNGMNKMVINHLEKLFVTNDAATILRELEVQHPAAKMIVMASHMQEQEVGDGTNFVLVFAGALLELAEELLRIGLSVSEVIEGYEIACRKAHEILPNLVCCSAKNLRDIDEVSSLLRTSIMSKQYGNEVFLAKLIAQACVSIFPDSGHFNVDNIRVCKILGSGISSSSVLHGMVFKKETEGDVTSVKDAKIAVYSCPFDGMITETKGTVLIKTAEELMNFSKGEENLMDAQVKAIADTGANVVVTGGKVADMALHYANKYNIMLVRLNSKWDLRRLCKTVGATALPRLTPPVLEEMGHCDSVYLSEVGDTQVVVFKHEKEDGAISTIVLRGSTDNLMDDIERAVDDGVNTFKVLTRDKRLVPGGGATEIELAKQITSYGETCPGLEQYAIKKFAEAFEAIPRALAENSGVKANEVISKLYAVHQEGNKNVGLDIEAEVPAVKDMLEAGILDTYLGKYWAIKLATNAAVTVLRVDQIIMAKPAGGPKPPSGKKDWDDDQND

| SMILES | enrich.exp.med ([1]; Probe, protein PSMB5 P28074) | enrich.exp.med.lin ([1]; protein PSMB5 (P28074)) | enrich.exp.med.log2 ([1]; protein PSMB5 (P28074)) | enrich.exp.med [2] | enrich.exp.med [3] | enrich.exp.med [4] | enrich.exp.med [5] | enrich.exp.med [6] | activity against C2 (in words) (caspase-2 (C2)) | activity against C3 (in words) (caspase-3 (C3)) | IC50 (caspase-3 (C3); read-out: Casp-3 IC50) | enrich.exp.med [7] | enrich.exp.med [8] | enrich.exp.med [9] | enrich.exp.med [10] | enrich.exp.med [11] | enrich.exp.med [12] | enrich.exp.med [13] | enrich.exp.med [14] | enrich.exp.med [15] |
| --- | --- | --- | --- | --- | --- | --- | --- | --- | --- | --- | --- | --- | --- | --- | --- | --- | --- | --- | --- | --- |
| C#CCOc1ccc([C@@H]2C[C@@H](C(=O)Nc3ccc(OC(F)(F)F)cc3)CN(S(=O)(=O)C=C)C2)cc1 (relative stereo) [13-t] | -2.323 | 0.1999 | -2.323 | 1.0337 | -0.3871 | 0.006951 | 1.71 | -8.257 |  |  |  |  |  |  |  |  |  |  |  |  |
| C=CS(=O)(=O)N1C[C@H](C(=O)Nc2ccc(OC(F)(F)F)cc2)C[C@@H](c2ccccc2)C1 [3a] |  |  |  |  |  |  |  |  | lack of activity | lack of activity | > 500 µM | 0.7263 | 0.6006 | 0.7402 | 0.8946 | 0.8565 | 0.5823 | 0.8033 | 0.5983 | 0.6038 |
